In PubChem BioAssay (NCI):
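A five-concentration, 48-hour dose response in 96-well plates underlies each endpoint, interpolated linearly between surrounding concentrations. TGI is the concentration that stops growth completely.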

Assays:
Assay in all cases: growth of human tumour cells (NCI), 48 h
OVCAR-8 ovarian = tested on: OVCAR-8 ovarian
MALME-3M melanoma = tested on: MALME-3M melanoma
UACC-62 melanoma = tested on: UACC-62 melanoma
NCI-H460 lung = tested on: NCI-H460 lung
A549 NSCLC = tested on: A549 NSCLC
RXF 393 renal = tested on: RXF 393 renal
BT-549 breast = tested on: BT-549 breast
SF-268 CNS = tested on: SF-268 CNS
SK-MEL-28 melanoma = tested on: SK-MEL-28 melanoma
HCT-116 colon = tested on: HCT-116 colon
PC-3 prostate = tested on: PC-3 prostate
HOP-62 NSCLC = tested on: HOP-62 NSCLC
SW-620 colon = tested on: SW-620 colon
SF-539 CNS = tested on: SF-539 CNS
UO-31 renal = tested on: UO-31 renal
SK-OV-3 ovarian = tested on: SK-OV-3 ovarian
OVCAR-4 ovarian = tested on: OVCAR-4 ovarian
SNB-75 CNS = tested on: SNB-75 CNS
TK-10 renal = tested on: TK-10 renal
SNB-19 CNS = tested on: SNB-19 CNS
RPMI-8226 leukemia = tested on: RPMI-8226 leukemia
A498 renal = tested on: A498 renal
SK-MEL-5 melanoma = tested on: SK-MEL-5 melanoma
SN12C renal = tested on: SN12C renal
U251 CNS = tested on: U251 CNS
T-47D breast = tested on: T-47D breast
OVCAR-3 ovarian = tested on: OVCAR-3 ovarian
HOP-92 NSCLC = tested on: HOP-92 NSCLC
SR leukemia = tested on: SR leukemia
K-562 leukemia = tested on: K-562 leukemia
MOLT-4 leukemia = tested on: MOLT-4 leukemia
MDA-MB-435 = tested on: MDA-MB-435
MDA-N = tested on: MDA-N
M14 melanoma = tested on: M14 melanoma
EKVX NSCLC = tested on: EKVX NSCLC
HS 578T breast = tested on: HS 578T breast
NCI-H23 lung = tested on: NCI-H23 lung
HL-60(TB) leukemia = tested on: HL-60(TB) leukemia
ACHN renal = tested on: ACHN renal
IGROV1 ovarian = tested on: IGROV1 ovarian
DU-145 prostate = tested on: DU-145 prostate
MDA-MB-231 breast = tested on: MDA-MB-231 breast
MCF7 breast = tested on: MCF7 breast
HT29 colon = tested on: HT29 colon
COLO 205 colon = tested on: COLO 205 colon
SK-MEL-2 melanoma = tested on: SK-MEL-2 melanoma
786-0 renal = tested on: 786-0 renal
HCT-15 colon = tested on: HCT-15 colon
CAKI-1 renal = tested on: CAKI-1 renal
OVCAR-5 ovarian = tested on: OVCAR-5 ovarian
NCI/ADR-RES ovarian = tested on: NCI/ADR-RES ovarian
UACC-257 melanoma = tested on: UACC-257 melanoma
NCI-H522 lung = tested on: NCI-H522 lung
LOX IMVI melanoma = tested on: LOX IMVI melanoma
KM12 colon = tested on: KM12 colon
NCI-H226 lung = tested on: NCI-H226 lung
SF-295 CNS = tested on: SF-295 CNS
CCRF-CEM leukemia = tested on: CCRF-CEM leukemia

With COc1ncc(C=C(C#N)C#N)c(OC)n1 the TGI (OVCAR-8 ovarian) was 62 µM, the TGI (MALME-3M melanoma) was > 100 µM and the TGI (UACC-62 melanoma) was > 100 µM. For the same molecule, the TGI (NCI-H460 lung) was > 100 µM, the TGI (A549 NSCLC) was > 100 µM and the TGI (RXF 393 renal) was > 100 µM. The TGI (BT-549 breast) was > 100 µM, the TGI (SF-268 CNS) was > 100 µM and the TGI (SK-MEL-28 melanoma) was > 100 µM. The TGI (HCT-116 colon) was 74.9 µM, the TGI (PC-3 prostate) was > 100 µM and the TGI (HOP-62 NSCLC) was > 100 µM. For the same molecule, the TGI (SW-620 colon) was > 100 µM, the TGI (SF-539 CNS) was > 100 µM and the TGI (UO-31 renal) was 56.8 µM. For the same molecule, the TGI (SK-OV-3 ovarian) was > 100 µM, the TGI (OVCAR-4 ovarian) was > 100 µM and the TGI (SNB-75 CNS) was > 100 µM. The TGI (TK-10 renal) was > 100 µM, the TGI (SNB-19 CNS) was > 100 µM and the TGI (RPMI-8226 leukemia) was 86 µM. For the same molecule, the TGI (A498 renal) was > 100 µM, the TGI (SK-MEL-5 melanoma) was > 100 µM and the TGI (SN12C renal) was 74.8 µM. For the same molecule, the TGI (U251 CNS) was > 100 µM, the TGI (T-47D breast) was > 100 µM and the TGI (OVCAR-3 ovarian) was > 100 µM. The TGI (HOP-92 NSCLC) was > 100 µM, the TGI (SR leukemia) was 53.5 µM and the TGI (K-562 leukemia) was > 100 µM. For the same molecule, the TGI (MOLT-4 leukemia) was > 100 µM, the TGI (MDA-MB-435) was 78.8 µM and the TGI (MDA-N) was 92.6 µM. The TGI (M14 melanoma) was 40.9 µM, the TGI (EKVX NSCLC) was > 100 µM and the TGI (HS 578T breast) was > 100 µM. The TGI (NCI-H23 lung) was > 100 µM, the TGI (HL-60(TB) leukemia) was 49.7 µM and the TGI (ACHN renal) was > 100 µM. For the same molecule, the TGI (IGROV1 ovarian) was > 100 µM, the TGI (DU-145 prostate) was > 100 µM and the TGI (MDA-MB-231 breast) was > 100 µM. For the same molecule, the TGI (MCF7 breast) was > 100 µM, the TGI (HT29 colon) was > 100 µM and the TGI (COLO 205 colon) was > 100 µM. For the same molecule, the TGI (SK-MEL-2 melanoma) was > 100 µM, the TGI (786-0 renal) was 42.4 µM and the TGI (HCT-15 colon) was > 100 µM. The TGI (CAKI-1 renal) was > 100 µM, the TGI (OVCAR-5 ovarian) was > 100 µM and the TGI (NCI/ADR-RES ovarian) was 64.1 µM. For the same molecule, the TGI (UACC-257 melanoma) was 57.8 µM, the TGI (NCI-H522 lung) was 45.4 µM and the TGI (LOX IMVI melanoma) was > 100 µM. For the same molecule, the TGI (KM12 colon) was > 100 µM, the TGI (NCI-H226 lung) was > 100 µM and the TGI (SF-295 CNS) was > 100 µM. It also gave a TGI (CCRF-CEM leukemia) of 32.6 µM.

In the case of Cc1ccc2c(c1)nc(N)n[n+]2[O-], the TGI (OVCAR-8 ovarian) was > 100 µM, the TGI (UACC-62 melanoma) was > 100 µM and the TGI (NCI-H460 lung) was > 100 µM. The TGI (A549 NSCLC) was > 100 µM, the TGI (BT-549 breast) was > 100 µM and the TGI (SF-268 CNS) was > 100 µM. For the same molecule, the TGI (SK-MEL-28 melanoma) was > 100 µM, the TGI (HCT-116 colon) was > 100 µM and the TGI (PC-3 prostate) was > 100 µM. For the same molecule, the TGI (HOP-62 NSCLC) was > 100 µM, the TGI (SW-620 colon) was > 100 µM and the TGI (SF-539 CNS) was > 100 µM. For the same molecule, the TGI (UO-31 renal) was > 100 µM, the TGI (SK-OV-3 ovarian) was > 100 µM and the TGI (OVCAR-4 ovarian) was > 100 µM. The TGI (SNB-75 CNS) was > 100 µM, the TGI (TK-10 renal) was > 100 µM and the TGI (SNB-19 CNS) was > 100 µM. The TGI (RPMI-8226 leukemia) was > 100 µM, the TGI (A498 renal) was > 100 µM and the TGI (SK-MEL-5 melanoma) was > 100 µM. For the same molecule, the TGI (SN12C renal) was > 100 µM, the TGI (U251 CNS) was > 100 µM and the TGI (T-47D breast) was > 100 µM. The TGI (OVCAR-3 ovarian) was > 100 µM, the TGI (SR leukemia) was > 100 µM and the TGI (K-562 leukemia) was > 100 µM. The TGI (MOLT-4 leukemia) was > 100 µM, the TGI (MDA-MB-435) was > 100 µM and the TGI (MDA-N) was > 100 µM. The TGI (M14 melanoma) was > 100 µM, the TGI (EKVX NSCLC) was > 100 µM and the TGI (HS 578T breast) was > 100 µM. The TGI (NCI-H23 lung) was > 100 µM, the TGI (HL-60(TB) leukemia) was > 100 µM and the TGI (ACHN renal) was > 100 µM. For the same molecule, the TGI (IGROV1 ovarian) was > 100 µM, the TGI (DU-145 prostate) was > 100 µM and the TGI (MDA-MB-231 breast) was > 100 µM. The TGI (MCF7 breast) was > 100 µM, the TGI (HT29 colon) was > 100 µM and the TGI (COLO 205 colon) was > 100 µM. The TGI (SK-MEL-2 melanoma) was > 100 µM, the TGI (786-0 renal) was > 100 µM and the TGI (HCT-15 colon) was > 100 µM. For the same molecule, the TGI (CAKI-1 renal) was > 100 µM, the TGI (OVCAR-5 ovarian) was > 100 µM and the TGI (NCI/ADR-RES ovarian) was > 100 µM. The TGI (UACC-257 melanoma) was > 100 µM, the TGI (NCI-H522 lung) was > 100 µM and the TGI (LOX IMVI melanoma) was > 100 µM. The TGI (KM12 colon) was > 100 µM, the TGI (NCI-H226 lung) was > 100 µM and the TGI (SF-295 CNS) was > 100 µM. For the same molecule, the TGI (CCRF-CEM leukemia) was > 100 µM.
